pIC50, pKi: −log10 of the molar value. Activity calls are given as the source filed them. The rule behind the calls is not given here.
Legend:
[1] = biological target: T1, Orexin/Hypocretin receptor type 1 (Homo sapiens, UniProt O43613); test: Antagonist activity at human OX1R expressed in CHO-K1 cells assessed as inhibition of orexin-A-induced increase in calcium mobilization preincubated for 15 mins followed orexin-A stimulation by Fura-2-AM dye based fluorescence assay; assay type: functional, cell-based
T1 sequence (O43613 whole entry): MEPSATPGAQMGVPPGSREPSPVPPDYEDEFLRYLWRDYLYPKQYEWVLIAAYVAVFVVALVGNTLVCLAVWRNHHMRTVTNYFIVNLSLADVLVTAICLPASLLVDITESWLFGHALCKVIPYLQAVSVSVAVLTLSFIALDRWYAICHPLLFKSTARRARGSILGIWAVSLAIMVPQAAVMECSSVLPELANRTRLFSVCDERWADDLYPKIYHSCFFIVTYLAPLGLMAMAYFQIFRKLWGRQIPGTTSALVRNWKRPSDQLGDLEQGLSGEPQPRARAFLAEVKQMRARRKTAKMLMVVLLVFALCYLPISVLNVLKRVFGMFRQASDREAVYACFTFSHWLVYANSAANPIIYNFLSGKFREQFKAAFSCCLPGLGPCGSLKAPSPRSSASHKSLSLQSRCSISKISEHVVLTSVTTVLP

[2] = biological target: T2, Orexin receptor type 2 (Homo sapiens, UniProt O43614); test: Antagonist activity at human OX2R expressed in CHO-K1 cells assessed as inhibition of orexin-A-induced increase in calcium mobilization preincubated for 15 mins followed orexin-A stimulation by Fura-2-AM dye based fluorescence assay; assay type: functional, cell-based
T2 sequence (O43614 whole entry): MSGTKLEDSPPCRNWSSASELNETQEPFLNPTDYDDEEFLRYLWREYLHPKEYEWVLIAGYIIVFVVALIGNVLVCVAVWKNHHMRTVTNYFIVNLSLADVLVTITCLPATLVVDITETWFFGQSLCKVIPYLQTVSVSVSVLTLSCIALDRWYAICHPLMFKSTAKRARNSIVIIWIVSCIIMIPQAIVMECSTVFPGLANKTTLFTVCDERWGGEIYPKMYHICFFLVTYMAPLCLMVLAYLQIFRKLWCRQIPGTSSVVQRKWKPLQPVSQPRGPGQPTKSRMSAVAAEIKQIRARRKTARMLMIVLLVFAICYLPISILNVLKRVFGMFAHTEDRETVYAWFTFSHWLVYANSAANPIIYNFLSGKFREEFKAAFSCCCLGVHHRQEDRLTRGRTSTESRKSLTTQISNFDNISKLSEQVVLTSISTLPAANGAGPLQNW

[3] = Drug concentration in C57BL/6J mouse brain at 10 mg/kg, ip measured after 0.5 hrs by LC-MS/MS analysis; assay type: ADME, organism-based; details: in vivo
[4] = Metabolic stability in pooled human liver microsomes assessed as intrinsic clearance […] preincubated for 5 mins followed by NADPH addition and measured upto 60 mins by HPLC-MS/MS analysis; assay type: ADME, Microsome; details: time < 65 min, read-out: CLH
[5] = Metabolic stability in pooled human liver microsomes assessed as half-life […] preincubated for 5 mins followed by NADPH addition and measured upto 60 mins by HPLC-MS/MS analysis; assay type: ADME, Microsome; details: time < 65 min
[6] = test system: Mus musculus; test: Sleep inducing activity in C57BL/6J mouse assessed as increase in total time of NREM sleep during dark phase at 10 mg/kg, ip measured at 12 to 18 hrs by EEG/EMG analysis; assay type: functional, organism-based; details: time 12-18 hrs
[7] = test system: Mus musculus; test: Sleep inducing activity in C57BL/6J mouse assessed as decrease in total time of wakefulness during dark phase at 10 mg/kg, ip measured at 12 to 18 hrs by EEG/EMG analysis; assay type: functional, organism-based; details: time 12-18 hrs
[8] = Apparent permeability across apical to basolateral side in human Caco-2 cells at pH 7.4 in the presence of 1% BSA; assay type: ADME, cell-based; details: Caco-2, pH 7.4
[9] = Passive apparent permeability in MDCK cells; assay type: ADME, cell-based, Canis lupus familiaris; details: dog
[10] = test system: Mus musculus; test: Effect on locomotor activity in ip dosed ICR mouse assessed as suppression of orexin-induced enhancement of locomotor activity pretreated with compound for 30 mins followed by orexin stimulation by infrared light beam-braking system locomotor recording system; assay type: functional, organism-based; details: dose 3-10 mg/kg, DDE = dose-dependent effect
[11] = Apparent permeability across apical to basolateral side in human Caco-2 cells at pH 7.4; assay type: ADME, cell-based; details: Caco-2, pH 7.4

pKi [1]	pIC50 [2]	pKi [2]	SMILES	further results
8.41	< 5.00		CN(C)c1ccc(C(=O)Nc2cccc([C@@]3(C)O[C@H]4CO[C@@H]5N4[C@H]3O[C@]5(C)c3cccc(NC(=O)c4ccc(N(C)C)cc4)c3)c2)cc1	
8.31			COc1ccc(C(=O)Nc2cccc(C3(C)OC4COC5N4C3OC5(C)c3cccc(NC(=O)c4ccc(OC)cc4)c3)c2)cc1 (racemic)	
7.93			COc1ccc(C(=O)Nc2cccc(C3(C)OC4COC5N4C3OC5(C)c3cccc(NC(=O)c4ccc(OC)cc4)c3)c2)cc1 (mixture of isomers)	
		6.65	C[C@@]1(c2cccc(NS(=O)(=O)c3ccccc3)c2)O[C@H]2CO[C@@H]3N2[C@H]1O[C@]3(C)c1ccc(NS(=O)(=O)c2ccccc2)cc1	pIC50 [1]: < 5.00
8.66			COc1ccc(C(=O)Nc2cccc([C@]3(C)O[C@@H]4CO[C@H]5N4[C@@H]3O[C@@]5(C)c3cccc(NC(=O)c4ccc(OC)cc4)c3)c2)cc1	
8.40			COc1ccc(C(=O)Nc2cccc([C@]3(C)O[C@H]4CO[C@@H]5N4[C@H]3O[C@@]5(C)c3cccc(NC(=O)c4ccc(OC)cc4)c3)c2)cc1	Ct [3]: 54.7 pmol/g; microsomal CLint [4]: 184 µL/min/mg; half-life [5]: 38 min; Activity [6]: Active; Activity [7]: Active; Papp A→B [8]: 1.4 ×10⁻⁶ cm/s
6.96			COc1ccc(C(=O)Nc2cccc([C@@]3(C)O[C@@H]4CO[C@H]5N4[C@@H]3O[C@]5(C)c3cccc(NC(=O)c4ccc(OC)cc4)c3)c2)cc1	
		6.18	CN(C)c1cccc([C@]2(C)O[C@H]3CO[C@@H]4N3[C@H]2O[C@@]4(C)c2cccc(N(C)C)c2)c1	pIC50 [1]: < 5.00
	< 5.00		CN(C)c1ccccc1C(=O)Nc1cccc([C@]2(C)O[C@H]3CO[C@@H]4N3[C@H]2O[C@@]4(C)c2cccc(NC(=O)c3ccccc3N(C)C)c2)c1	pIC50 [1]: < 5.00
8.11	< 5.00		CN(C)c1cccc(C(=O)Nc2cccc([C@@]3(C)O[C@H]4CO[C@@H]5N4[C@H]3O[C@]5(C)c3cccc(NC(=O)c4cccc(N(C)C)c4)c3)c2)c1	
8.54	< 5.00		COc1cccc(C(=O)Nc2cccc([C@@]3(C)O[C@H]4CO[C@@H]5N4[C@H]3O[C@]5(C)c3cccc(NC(=O)c4cccc(OC)c4)c3)c2)c1	
8.12		8.27	COc1cccc(C(=O)Nc2cccc([C@]3(C)O[C@@H]4N5[C@H](CO[C@H]53)O[C@@]4(C)c3cccc(NC(=O)c4ccccc4)c3)c2)c1	
	< 5.00		CN(C)c1ccc(C(=O)Nc2cccc([C@]3(C)O[C@H]4CO[C@@H]5N4[C@H]3O[C@@]5(C)c3cccc(NC(=O)c4ccc(N(C)C)cc4)c3)c2)cc1	pIC50 [1]: < 5.00
8.73			COc1ccc(C(=O)Nc2cccc([C@@]3(C)O[C@H]4CO[C@@H]5N4[C@H]3O[C@]5(C)c3cccc(NC(=O)c4ccc(OC)cc4)c3)c2)cc1	Ct [3]: 33.9 pmol/g; microsomal CLint [4]: 183 µL/min/mg; Papp [9]: > 10 ×10⁻⁶ cm/s; half-life [5]: 39 min; Activity [10]: Dde; Papp A→B [11]: 11.9 ×10⁻⁶ cm/s
6.16		6.58	C[C@@]1(c2cccc(NC(=O)c3cccnc3)c2)O[C@H]2CO[C@@H]3N2[C@H]1O[C@@]3(C)c1cccc(NC(=O)c2cccnc2)c1	
7.60	< 5.00		C[C@]1(c2cccc(NC(=O)c3ccccc3)c2)O[C@H]2CO[C@@H]3N2[C@H]1O[C@]3(C)c1cccc(NC(=O)c2ccccc2)c1	
7.74		7.25	COc1ccccc1C(=O)Nc1cccc([C@]2(C)O[C@@H]3N4[C@H](CO[C@H]42)O[C@@]3(C)c2cccc(NC(=O)c3ccccc3)c2)c1	
7.28	< 5.00		C[C@]1(c2cccc(NC(=O)c3cccnc3)c2)O[C@H]2CO[C@@H]3N2[C@H]1O[C@]3(C)c1cccc(NC(=O)c2cccnc2)c1	
7.83		7.16	C[C@@]1(c2cccc(NC(=O)c3ccccn3)c2)O[C@H]2CO[C@@H]3N2[C@H]1O[C@@]3(C)c1cccc(NC(=O)c2ccccn2)c1	
6.20	< 5.00		CN(C)c1ccccc1C(=O)Nc1cccc([C@@]2(C)O[C@H]3CO[C@@H]4N3[C@H]2O[C@]4(C)c2cccc(NC(=O)c3ccccc3N(C)C)c2)c1	
7.47		6.74	CC(C)(C)OC(=O)Nc1cccc([C@]2(C)O[C@H]3CO[C@@H]4N3[C@H]2O[C@@]4(C)c2cccc(NC(=O)OC(C)(C)C)c2)c1	
7.74	< 5.00		C[C@]1(c2cccc(NC(=O)c3ccccn3)c2)O[C@H]2CO[C@@H]3N2[C@H]1O[C@]3(C)c1cccc(NC(=O)c2ccccn2)c1	
6.98	< 5.00		C[C@]1(c2cccc(NC(=O)c3ccncc3)c2)O[C@H]2CO[C@@H]3N2[C@H]1O[C@]3(C)c1cccc(NC(=O)c2ccncc2)c1	
	< 5.00		CN(C)c1cccc(C(=O)Nc2cccc([C@]3(C)O[C@H]4CO[C@@H]5N4[C@H]3O[C@@]5(C)c3cccc(NC(=O)c4cccc(N(C)C)c4)c3)c2)c1	pIC50 [1]: < 5.00
7.63		7.82	C[C@@]1(c2cccc(NC(=O)c3ccccc3)c2)O[C@H]2CO[C@@H]3N2[C@H]1O[C@@]3(C)c1cccc(NC(=O)c2ccccc2)c1	
7.48			COc1cccc(C(=O)Nc2cccc([C@@]3(C)O[C@H]4CO[C@@H]5N4[C@H]3O[C@]5(C)c3cccc(NC(=O)c4ccccc4OC)c3)c2)c1	
		6.75	C[C@@]1(c2cccc(NC(=O)c3ccncc3)c2)O[C@H]2CO[C@@H]3N2[C@H]1O[C@@]3(C)c1cccc(NC(=O)c2ccncc2)c1	pIC50 [1]: < 5.00
